Experiment [1] relates to HT1080 cells. Nature of the experiment: BrdU incorporation (DNA synthesis) in quiescent HT1080 cells. The format is cell-based, human. Conditions: 18 h, R1881 and DHT 10 nM, EGF 100 ng/ml. The protocol:
Human fibrosarcoma HT1080 cells were used. In A, quiescent cells on coverslips were left un-stimulated or stimulated for 18 h with the indicated compounds. […] After in vivo pulse with BrdU (100 μM; Sigma), BrdU incorporation was analyzed by IF and expressed as % of total nuclei. Several independent experiments were performed in duplicate and the results were derived from at least 400 scored cells for each coverslip. Mean and SEM are shown. n represents the number of experiments. […] In B, xenografts were established in nude male mice as described in Methods. On alternate days, animals were intra-peritoneally injected with vehicle alone (vehicle), or the pure androgen antagonist Casodex (Cx: 0.1 μg/mice; 4µg/Kg body weight), or DHT (DHT: 0,1 μg/mice; 3 μg/Kg body weight) alone. Volumes of HT1080 cell xenografts were measured at the indicated times in two dimensions by a caliper and expressed as tumor mass (mm^3). Mean and SEM are shown. n represents the number of experiments.
Quiescent HT1080 cells were used. […] Casodex (at 10 μM) was used for comparison with the S1 peptide. Upper section in A, Western blot of HT1080 cell lysates with anti-EGFR antibody. […] In B, lysates were immune-precipitated with the anti-Src MAb and Src activity in immune complexes was assayed using acidified enolase, as a substrate. In C, cells on coverslips were left untreated or treated for 18 h with the indicated compounds. After in vivo pulse with BrdU (100 μM), BrdU incorporation was analyzed by IF and expressed as % of total nuclei. Several independent experiments were performed in duplicate and the results were obtained from at least 500 scored cells for each coverslip. Mean and SEM are shown. n represents the number of experiments.
In general terms: Incorporation of labelled thymidine or its analogues reports DNA synthesis.

In another experiment the test system is HT1080 cell xenografts. Kind of experiment: HT1080 cell xenografts in nude male mice, tumor mass. The format is in vivo. Conditions: i.p. on alternate days for 4 weeks, Casodex 0.1 μg/mice (4 µg/Kg), DHT 0,1 μg/mice (3 μg/Kg), six animals per group. The protocol: Figure 1 Casodex inhibits the EGF-triggered DNA synthesis in human fibrosarcoma HT1080 cells and reduces the growth of HT1080 xenografts. Human fibrosarcoma HT1080 cells were used. In A, quiescent cells on coverslips were left un-stimulated or stimulated for 18 h with the indicated compounds. […] After in vivo pulse with BrdU (100 μM; Sigma), BrdU incorporation was analyzed by IF and expressed as % of total nuclei. Several independent experiments were performed in duplicate and the results were derived from at least 400 scored cells for each coverslip. Mean and SEM are shown. n represents the number of experiments. (**) p value< 0,001. […] In B, xenografts were established in nude male mice as described in Methods. […] Volumes of HT1080 cell xenografts were measured at the indicated times in two dimensions by a caliper and expressed as tumor mass (mm^3). […]
HT1080 cells in 50% (v/v) Matrigel solution in phosphate-buffered saline (PBS; pH 7.4) were subcutaneously injected in the dorsal posterior region at 2.5 x 10^6 cells/male athymic mice (CD mice, Charles-River Italia) without hormone priming. […] The tumor volumes of HT1080 cell xenografts were measured at indicated intervals in two dimensions by a caliper and expressed as tumor mass (mm^3). This is calculated according to the formula: a^2 × b × 0.5, where a is the width and b is the length of the tumor. […]

In experiment [2] the test system is HT1080 cells. Nature of the experiment: Trans-well migration/invasiveness of HT1080 cells. It is filed as cell-based, human. The note with it: HT1080 cells, 10 nM R1881, 6 h, collagen pre-coated Trans-well filters.
Another experiment deals with NIH3T3 cells. Nature of the experiment: BrdU incorporation in NIH3T3 fibroblasts. The format is cell-based, mouse. The note with it: quiescent NIH3T3 cells, 18 h; EGF 100 ng/ml; R1881 10 nM. The method, then: NIH3T3 cells were used. In A, cells were transfected with 3416 or 3424 ARE-Luc constructs with or without hAR-expressing plasmid and then made quiescent as reported in Methods. Cells were left unstimulated or stimulated for 18 h with 10 nM R1881. Luciferase activity was assayed, normalized using beta-gal as an internal control, and expressed as fold induction. Three independent experiments were performed in triplicate. Means and SEM are shown; n represents the number of experiments. […] After in vivo labeling with BrdU (100 μM), BrdU incorporation was analyzed by IF and expressed as % of total cells. Several independent experiments were performed in duplicate and data derived from at least 700 scored cells for each coverslip. Mean and SEM are shown. n represents the number of experiments. […] Quiescent NIH3T3 fibroblasts were used. In C, cells on coverslips were left unstimulated or stimulated for 18 h with the indicated compounds. […] After in vivo pulse with BrdU (100 μM), BrdU incorporation was analyzed by IF and expressed as % of total cells. Several independent experiments were performed in duplicate and the results were derived from at least 500 scored cells for each coverslip. Mean and SEM are shown. n represents the number of experiments. […] The Western blot of MCF-7 cell lysate with the anti-tubulin or the anti-EGFR antibody is shown for comparison. In D, cells were left untreated or treated for 6 h with the indicated compounds. […] Cells were allowed to migrate in collagen pre-coated Trans-well filters. Migrated cells were stained and counted as reported in Methods. Results were derived from several independent experiments, each performed in duplicate. Data are expressed as relative increase. Mean and SEM are shown. n represents the number of experiments. […] (PPTX) Click here for additional data file.

For `C[C@]12CCC(=O)C[C@@H]1CC[C@@H]1[C@@H]2CC[C@]2(C)[C@@H](O)CC[C@@H]12` [DHT], the “BrdU incorporation (DNA synthesis) upon stimulation with the compound alone” value in the experiment with HT1080 cells [1] was “unable to mediate DNA synthesis”. Further, the “Growth of HT1080 xenografts (tumor mass)” value with HT1080 cell xenografts is “slightly affected this increase”.
Take `C[C@]1(O)CC[C@H]2[C@@H]3CCC4=CC(=O)CCC4=C3C=C[C@@]21C` [R1881]: the “BrdU incorporation (DNA synthesis) upon stimulation with the compound alone” value in the experiment on HT1080 cells [1] is reported as “unable to mediate DNA synthesis”; in the experiment on NIH3T3 cells it was “does not induce DNA synthesis”. Further, the “Cell motility upon androgen challenge (Trans-well)” value with HT1080 cells [2] is on record as “robustly increases cell motility”.
